In patent US10131652B2, “Pyrimidinyloxy benzene derivatives as herbicides” (E. I. DU PONT DE NEMOURS AND COMPANY, priority 2014, dated 2018):

What was measured:
Type in all cases: in vivo
[1] = tested on: ducksalad (Heteranthera limosa); assay: Test C flooded paddy test plant response; conditions: Flood, 250 g ai/ha; scale of 0 to 100 where 0 is no effect and 100 is complete control; 13 to 15 days
Procedure, shortened: (§1)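 2-leaf plants; flood 3 cm, cpd into paddy water; greenhouse 13–15 d; visual score vs untreated, 0 = no effect, 100 = complete control; dash = no result.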

[2] = tested on: small-flower umbrella sedge (Cyperus difformis); assay: Test C flooded paddy test plant response; conditions: Flood, 250 g ai/ha; scale of 0 to 100 where 0 is no effect and 100 is complete control; 13 to 15 days
Procedure, shortened: as §1

rice (Oryza sativa) = assay: Test C flooded paddy test plant response; conditions: Flood, 250 g ai/ha; scale of 0 to 100 where 0 is no effect and 100 is complete control; 13 to 15 days
Procedure, shortened: as §1

[3] = tested on: barnyardgrass (Echinochloa crus-galli); assay: Test C flooded paddy test plant response; conditions: Flood, 250 g ai/ha; scale of 0 to 100 where 0 is no effect and 100 is complete control; 13 to 15 days
Procedure, shortened: as §1

[4] = tested on: velvetleaf (Abutilon theophrasti); assay: Test D pre-/postemergence plant response
Procedure, shortened: (§2)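 0 = no effect, 100 = complete control: plants were scored this way by visual comparison with controls 13 to 15 days post-treatment. Application was preemergence to sown loam/sand pots or postemergence to 2–18 cm seedlings in peat-based mix.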

[5] = tested on: morningglory (Ipomoea coccinea); assay: Test D pre-/postemergence plant response
Procedure, shortened: as §2

[6] = tested on: lambsquarters (Chenopodium album); assay: Test D pre-/postemergence plant response
Procedure, shortened: as §2

soybean (Glycine max) = assay: Test D pre-/postemergence plant response
Procedure, shortened: as §2

[7] = tested on: waterhemp (common waterhemp, Amaranthus rudis); assay: Test D pre-/postemergence plant response
Procedure, shortened: as §2

[8] = tested on: winter wheat (Triticum aestivum); assay: Test D pre-/postemergence plant response
Procedure, shortened: as §2

[9] = tested on: johnsongrass (Sorghum halepense); assay: Test D pre-/postemergence plant response
Procedure, shortened: as §2

[10] = tested on: wheat (Triticum aestivum); assay: Test B pre-/postemergence plant response; conditions: 0 to 100 scale, 0 no effect, 100 complete control
Procedure, shortened: (§3)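 Scoring used a 0–100 scale (100 = complete control) by visual comparison with untreated plants after approximately 10 days in the greenhouse. Compounds, in surfactant-containing non-phytotoxic solvent, were sprayed onto soil at planting or onto 2–10 cm seedlings.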

[11] = tested on: pigweed (Amaranthus retroflexus); assay: Test B pre-/postemergence plant response
Procedure, shortened: as §3

[12] = tested on: giant foxtail (Setaria faberii); assay: Test B pre-/postemergence plant response
Procedure, shortened: as §3

[13] = tested on: barnyardgrass (Echinochloa crus-galli); assay: Test B pre-/postemergence plant response
Procedure, shortened: as §3

corn (Zea mays) = assay: Test B pre-/postemergence plant response; conditions: 0 to 100 scale, 0 no effect, 100 complete control
Procedure, shortened: as §3

[14] = Postemergence, 16 g ai/ha, scale 0 to 100 (0 no effect, 100 complete control)
[15] = Postemergence, 31 g ai/ha, scale 0 to 100 (0 no effect, 100 complete control)
[16] = Postemergence, 62 g ai/ha, scale 0 to 100, 0 no effect, 100 complete control
[17] = Postemergence, 125 g ai/ha, scale 0 to 100, 0 no effect, 100 complete control
[18] = Preemergence, 16 g ai/ha, scale 0 to 100 (0 no effect, 100 complete control)
[19] = Preemergence, 31 g ai/ha, scale 0 to 100 (0 no effect, 100 complete control)
[20] = Preemergence, 62 g ai/ha, scale 0 to 100 (0 no effect, 100 complete control)
[21] = 31 g ai/ha, Postemergence, 0 to 100 scale, 0 no effect, 100 complete control
[22] = 31 g ai/ha, Preemergence, 0 to 100 scale where 0 is no effect and 100 is complete control
[23] = 125 g ai/ha, postemergence, 0 to 100 scale, 0 no effect, 100 complete control
[24] = Preemergence, 125 g ai/ha, 0 to 100 scale where 0 is no effect and 100 is complete control

Fc1ccc(Oc2ncc(Cl)cn2)c(-c2cc(C(F)F)on2)c1F [Compound 113]
Ducksalad plant response rating [1]: 95 | Sedge, Umbrella plant response rating [2]: 95 | Rice plant response rating (rice (Oryza sativa)): 15 | Barnyardgrass plant response rating [3]: 0 | Velvetleaf plant response rating [4, 14]: 60 | Velvetleaf plant response rating [4, 15]: 60 | Plant response rating, Velvetleaf [4, 16]: 70 | Plant response rating, Velvetleaf [4, 17]: 70 | Plant response rating (scale 0 to 100), Velvetleaf ([4]; Preemergence, 125 g ai/ha): 100 | Plant response rating, Velvetleaf [4, 18]: 70 | Plant response rating, Velvetleaf [4, 19]: 85 | Plant response rating, Velvetleaf [4, 20]: 100 | Morningglory plant response rating [5, 14]: 85 | Morningglory plant response rating [5, 15]: 75 | Plant response rating, Morningglory [5, 16]: 85 | Plant response rating, Morningglory [5, 17]: 80 | Plant response rating (scale 0 to 100), Morningglory ([5]; Preemergence, 125 g ai/ha): 95 | Plant response rating, Morningglory [5, 18]: 20 | Plant response rating, Morningglory [5, 19]: 35 | Plant response rating, Morningglory [5, 20]: 85 | Lambsquarters plant response rating [6, 14]: 70 | Lambsquarters plant response rating [6, 15]: 85 | Plant response rating, Lambsquarters [6, 16]: 95 | Plant response rating, Lambsquarters [6, 17]: 90 | Plant response rating (scale 0 to 100), Lambsquarters ([6]; Preemergence, 125 g ai/ha): 98 | Plant response rating, Lambsquarters [6, 18]: 85 | Plant response rating, Lambsquarters [6, 19]: 98 | Plant response rating, Lambsquarters [6, 20]: 98 | Soybean plant response rating (soybean (Glycine max); [14]): 80 | Soybean plant response rating (soybean (Glycine max); [15]): 55 | Plant response rating, Soybean (soybean (Glycine max); [16]): 65 | Plant response rating, Soybean (soybean (Glycine max); [17]): 75 | Plant response rating (scale 0 to 100), Soybean (soybean (Glycine max); Preemergence, 125 g ai/ha): 80 | Plant response rating, Soybean (soybean (Glycine max); [18]): 35 | Plant response rating, Soybean (soybean (Glycine max); [19]): 40 | Plant response rating, Soybean (soybean (Glycine max); [20]): 90 | Waterhemp plant response rating [7, 14]: 85 | Waterhemp plant response rating [7, 15]: 80 | Plant response rating, Waterhemp [7, 16]: 85 | Plant response rating, Waterhemp [7, 17]: 90 | Plant response rating (scale 0 to 100), Waterhemp ([7]; Preemergence, 125 g ai/ha): 100 | Plant response rating, Waterhemp [7, 18]: 100 | Plant response rating, Waterhemp [7, 19]: 100 | Plant response rating, Waterhemp [7, 20]: 100 | Wheat plant response rating [8, 14]: 0 | Wheat plant response rating [8, 15]: 0 | Plant response rating, Wheat [8, 16]: 5 | Plant response rating, Wheat [8, 17]: 5 | Plant response rating (scale 0 to 100), Wheat ([8]; Preemergence, 125 g ai/ha): 20 | Plant response rating, Wheat [8, 18]: 0 | Plant response rating, Wheat [8, 19]: 5 | Plant response rating, Wheat [8, 20]: 10 | Johnsongrass plant response rating [9, 14]: 5 | Johnsongrass plant response rating [9, 15]: 5 | Plant response rating, Johnsongrass [9, 16]: 5 | Plant response rating, Johnsongrass [9, 17]: 10 | Plant response rating (scale 0 to 100), Johnsongrass ([9]; Preemergence, 125 g ai/ha): 100 | Plant response rating, Johnsongrass [9, 18]: 10 | Plant response rating, Johnsongrass [9, 19]: 70 | Plant response rating, Johnsongrass [9, 20]: 90 | Plant response rating, Wheat ([10]; 31 g ai/ha, Postemergence): 0 | Plant response rating, Wheat ([10]; 125 g ai/ha, postemergence): 10 | Plant response rating, Pigweed [11, 21]: 100 | Plant response rating, Pigweed [11, 22]: 100 | Plant response rating, Pigweed [11, 23]: 100 | Plant response rating, Foxtail, Giant [12, 21]: 60 | Plant response rating, Foxtail, Giant [12, 22]: 90 | Plant response rating, Foxtail, Giant [12, 23]: 90 | Plant response rating, Foxtail, Giant [12, 24]: 100 | Plant response rating, Barnyardgrass [13, 21]: 60 | Plant response rating, Barnyardgrass [13, 22]: 70 | Plant response rating, Barnyardgrass [13, 23]: 90 | Plant response rating, Barnyardgrass [13, 24]: 100 | Plant response rating, Corn (corn (Zea mays); 31 g ai/ha, Postemergence): 10 | Plant response rating, Corn (corn (Zea mays); 125 g ai/ha, postemergence): 30

FC(Cl)c1cc(-c2ccccc2Oc2ncc(Cl)cn2)no1 (stereo not shown) [Compound 116]
Ducksalad plant response rating [1]: 95 | Sedge, Umbrella plant response rating [2]: 90 | Rice plant response rating (rice (Oryza sativa)): 30 | Barnyardgrass plant response rating [3]: 0 | Velvetleaf plant response rating [4, 14]: 55 | Velvetleaf plant response rating [4, 15]: 65 | Plant response rating, Velvetleaf [4, 16]: 70 | Plant response rating, Velvetleaf [4, 17]: 75 | Morningglory plant response rating [5, 14]: 15 | Morningglory plant response rating [5, 15]: 10 | Plant response rating, Morningglory [5, 16]: 10 | Plant response rating, Morningglory [5, 17]: 30 | Lambsquarters plant response rating [6, 14]: 40 | Lambsquarters plant response rating [6, 15]: 60 | Plant response rating, Lambsquarters [6, 16]: 80 | Plant response rating, Lambsquarters [6, 17]: 100 | Soybean plant response rating (soybean (Glycine max); [14]): 40 | Soybean plant response rating (soybean (Glycine max); [15]): 55 | Plant response rating, Soybean (soybean (Glycine max); [16]): 30 | Plant response rating, Soybean (soybean (Glycine max); [17]): 95 | Waterhemp plant response rating [7, 14]: 70 | Waterhemp plant response rating [7, 15]: 90 | Plant response rating, Waterhemp [7, 16]: 90 | Plant response rating, Waterhemp [7, 17]: 100 | Wheat plant response rating [8, 14]: 70 | Wheat plant response rating [8, 15]: 0 | Plant response rating, Wheat [8, 16]: 5 | Plant response rating, Wheat [8, 17]: 5 | Johnsongrass plant response rating [9, 14]: 10 | Johnsongrass plant response rating [9, 15]: 20 | Plant response rating, Johnsongrass [9, 16]: 20 | Plant response rating, Wheat ([10]; 31 g ai/ha, Postemergence): 10 | Plant response rating, Wheat ([10]; 125 g ai/ha, postemergence): 20 | Plant response rating, Pigweed [11, 21]: 100 | Plant response rating, Pigweed [11, 22]: 70 | Plant response rating, Pigweed [11, 23]: 100 | Plant response rating, Foxtail, Giant [12, 21]: 20 | Plant response rating, Foxtail, Giant [12, 22]: 40 | Plant response rating, Foxtail, Giant [12, 23]: 90 | Plant response rating, Foxtail, Giant [12, 24]: 90 | Plant response rating, Barnyardgrass [13, 21]: 10 | Plant response rating, Barnyardgrass [13, 22]: 0 | Plant response rating, Barnyardgrass [13, 23]: 30 | Plant response rating, Barnyardgrass [13, 24]: 30 | Plant response rating, Corn (corn (Zea mays); 31 g ai/ha, Postemergence): 20 | Plant response rating, Corn (corn (Zea mays); 125 g ai/ha, postemergence): 40
